According to PubChem BioAssay (NCI):
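Values below derive from 48-hour exposures of cells grown in 96-well plates, with endpoints linearly interpolated between the two concentrations bracketing the appropriate inhibition level. TGI denotes the concentration required for complete inhibition of growth.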

Tests used:
Test in all cases: growth of human tumour cells (NCI), 48 h
SK-MEL-2 melanoma = test system: SK-MEL-2 melanoma
OVCAR-8 ovarian = test system: OVCAR-8 ovarian
NCI/ADR-RES ovarian = test system: NCI/ADR-RES ovarian
HT29 colon = test system: HT29 colon
MALME-3M melanoma = test system: MALME-3M melanoma
NCI-H226 lung = test system: NCI-H226 lung
SK-MEL-28 melanoma = test system: SK-MEL-28 melanoma
NCI-H522 lung = test system: NCI-H522 lung
UACC-257 melanoma = test system: UACC-257 melanoma
KM12 colon = test system: KM12 colon
786-0 renal = test system: 786-0 renal
SF-539 CNS = test system: SF-539 CNS
TK-10 renal = test system: TK-10 renal
SNB-19 CNS = test system: SNB-19 CNS
HCT-15 colon = test system: HCT-15 colon
A549 NSCLC = test system: A549 NSCLC
COLO 205 colon = test system: COLO 205 colon
SN12C renal = test system: SN12C renal
MDA-MB-435 = test system: MDA-MB-435
UO-31 renal = test system: UO-31 renal
HOP-92 NSCLC = test system: HOP-92 NSCLC
PC-3 prostate = test system: PC-3 prostate
MCF7 breast = test system: MCF7 breast
K-562 leukemia = test system: K-562 leukemia
HCT-116 colon = test system: HCT-116 colon
SK-MEL-5 melanoma = test system: SK-MEL-5 melanoma
LOX IMVI melanoma = test system: LOX IMVI melanoma
MDA-MB-231 breast = test system: MDA-MB-231 breast
HOP-62 NSCLC = test system: HOP-62 NSCLC
ACHN renal = test system: ACHN renal
T-47D breast = test system: T-47D breast
UACC-62 melanoma = test system: UACC-62 melanoma
IGROV1 ovarian = test system: IGROV1 ovarian
HCC-2998 colon = test system: HCC-2998 colon
A498 renal = test system: A498 renal
RPMI-8226 leukemia = test system: RPMI-8226 leukemia
U251 CNS = test system: U251 CNS
NCI-H460 lung = test system: NCI-H460 lung
CAKI-1 renal = test system: CAKI-1 renal
MDA-N = test system: MDA-N
M14 melanoma = test system: M14 melanoma
OVCAR-5 ovarian = test system: OVCAR-5 ovarian
HL-60(TB) leukemia = test system: HL-60(TB) leukemia
HS 578T breast = test system: HS 578T breast
OVCAR-3 ovarian = test system: OVCAR-3 ovarian
OVCAR-4 ovarian = test system: OVCAR-4 ovarian
BT-549 breast = test system: BT-549 breast
SNB-75 CNS = test system: SNB-75 CNS
SW-620 colon = test system: SW-620 colon
CCRF-CEM leukemia = test system: CCRF-CEM leukemia
EKVX NSCLC = test system: EKVX NSCLC
SK-OV-3 ovarian = test system: SK-OV-3 ovarian
DU-145 prostate = test system: DU-145 prostate
SF-295 CNS = test system: SF-295 CNS
SF-268 CNS = test system: SF-268 CNS
NCI-H23 lung = test system: NCI-H23 lung
RXF 393 renal = test system: RXF 393 renal
MOLT-4 leukemia = test system: MOLT-4 leukemia

Measured: TGI

COC(=O)C1=C(OC(=O)/C(=C/c2ccccc2)c2ccc([N+](=O)[O-])cc2)C(C(=O)OC)[C@@]2(O)[C@@H](C(=O)OC)[C@H](C)C[C@@H]1[C@@H]2C(=O)OC (stereo partly drawn)
> 100 µM: all assays above
